# Source: PMC3707052 (Alzheimer's Research & Therapy, 2013)
# Where two headings read alike, the source gives them in different places.
# Legend:
# gamma-secretase [1] = assay: Aβ peptides in conditioned media of CHO-2B7 cells (MSD 3-Plex); assay type: cell-based, Chinese hamster; settings: for IC50: 5 hrs treatment, conditioned media
# Method: CHO-2B7 cells (Mayo Clinic) are Chinese hamster ovary cells stably transfected with human βAPP 695wt. The cells were cultured in Ham's F12 media (Thermo Fisher SH30026.01, Waltham, MA, USA) supplemented with 10% FBS, 0.25 mg/mL Zeocin and 90 ug/mL penicillin/streptomycin at 37°C in a 5% CO2 atmosphere. For compound treatment, cells were plated in 96-well plates at a density of 1.0 × 10^5 cells/mL and allowed grow to 100% confluence over two days. Test compounds in dimethyl sulfoxide (DMSO) were diluted 100-fold directly into the media before being adding to the cells. Immediately prior to adding compound-containing media to the cells, the cells were washed once with 1X PBS. Conditioned media from CHO-2B7 cells were collected after 5 hrs of treatment and the levels of Aβ peptides were assessed as described below.
# Conditioned media were collected after 5 hrs of treatment and diluted with one volume of MSD blocking buffer (1% BSA in MSD wash buffer). MSD Human (6E10) Aβ 3-Plex plates, which are pre-spotted with three separate spots in each well containing capture antibodies against the unique C-terminal ends of Aβ38, Aβ40 and Aβ42, respectively, were blocked with MSD blocking buffer for one hour. Samples were transferred to the blocked plates with 6E10 detection antibody and incubated for 2 hrs at room temperature with orbital shaking followed by washing and reading according to the manufacturer's instructions (SECTOR® Imager 2400 Meso Scale Discovery, Gaithersburg MD, USA).
# gamma-secretase [2] = target: gamma-secretase; parameters: method as in PMID 22505028, PMID 19542625; settings: weak modulator; cited from earlier work
# gamma-secretase [3] = assay: Six-day once-a-day oral dosing PK/PD in Tg2576 mice (brain, plasma, CSF Aβ); assay type: in vivo; settings: positive control, orally once on day six, 6 hrs post dose
# Method: Female transgenic mice (Tg2576, 3 months of age; n = 20), wild-type male CD-1 mice (six weeks of age; n = 8 to 12) or wild-type male Sprague Dawley rats (200 to 225 g body weight; n = 12) were utilized to assess in vivo efficacy.
# In the transgenic studies, compound was dosed in 10:20:70 ethanol/solutol/water via oral gavage. […] The mice were subjected to cisterna magna puncture and collection of cerebrospinal fluid (CSF) (approximately 5 μl per mouse). Individual CSF samples were flash-frozen on dry ice and stored at -80°C. Thereafter, the mice were subjected to cardiac puncture and blood samples were collected into K2EDTA tubes and stored on wet ice until processed to plasma by centrifugation (2,000 g at 4°C for 10 minutes) within 30 minutes of collection. The plasma was aliquoted for both Aβ measurements and parent drug using LC/MS/MS. Both sets of tubes were frozen at -80°C. The brains were perfused with non-heparinized saline (the blood flushed away) and removed carefully. Brains were rinsed with ice cold PBS (without Mg^2+ or Ca^2+), blotted dry, dissected on ice into three pieces (left and right hemisphere and cerebellum). Samples were frozen in liquid nitrogen immediately prior to storage at -80°C. Cerebella were analyzed for parent drug via LC/MS/MS. Parent drug levels were compared to a standard curve to establish the plasma, brain and CSF levels. […]
smiles,measurement,setting,value
CCO[C@@H]([C@H]1C[C@@H](C)[C@H]2[C@@H](O1)[C@H](O)[C@@]1(C)[C@@H]3CC[C@H]4C(C)(C)[C@@H](O[C@H]5CN(C6CN(C(C)C)C6)CCO5)CC[C@@]45C[C@@]35CC[C@]21C)C(C)(C)O [SPI-1865],Total Aβ,gamma-secretase [1]; CHO-2B7 cells,only decreased at doses where cytotoxicity was observed
same,IC50,"gamma-secretase [1]; CHO-2B7 cells, read-out: IC50 Aβ38",259 nM
same,IC50,"gamma-secretase [1]; CHO-2B7 cells, read-out: IC50 Aβ40",2800 nM
same,IC50,"gamma-secretase [1]; CHO-2B7 cells, read-out: IC50 Aβ42",106 nM
same,IC25 Aβ42,gamma-secretase [1]; in vitro,33 ± 18 nM
C[C@@H](C(=O)O)c1ccc(-c2ccccc2)c(F)c1 [Flurizan],IC50,gamma-secretase [2],250000 nM
CC(C)CC[C@H](c1ccc(Cl)cc1)N1CC[C@@H](CC(=O)O)C[C@H]1c1ccc(C(F)(F)F)cc1 [Merck GSM-1],effect on Aβ38 levels,gamma-secretase [3],increased Aβ38 levels
same,effect on Aβ42 levels,gamma-secretase [3],significantly reduced Aβ42
